Tests used:
[1] = tested on: MCF-7 human breast carcinoma; experiment: In vitro sensitivity, sulforhodamine B cytotoxicity assay, MCF-7 (Table 2); assay type: cell-based; details: 72-hour incubation; averaged from two separate experiments
[2] = tested on: HT-29 human colon carcinoma cells; experiment: In vitro sensitivity, sulforhodamine B cytotoxicity assay, HT-29 (Table 2); assay type: cell-based; details: 72-hour incubation; averaged from two separate experiments
[3] = tested on: MCF-7/ADR (adriamycin-resistant); experiment: In vitro sensitivity, sulforhodamine B cytotoxicity assay, MCF-7/ADR (Table 2); assay type: cell-based, human; details: 72-hour incubation; averaged from two separate experiments
[4] = tested on: A-549 human lung carcinoma; experiment: In vitro sensitivity, sulforhodamine B cytotoxicity assay, A-549 (Table 2); assay type: cell-based; details: 72-hour incubation; averaged from two separate experiments
Method: Briefly, 96-well microtiter plates were inoculated (100 μL/well) with 5×10^3 (A549) or 7.5×10^3 (OVCAR-3) cells/well, in RPMI-1640 supplemented with 10% FBS (growth media). The plates were incubated for 24 hr at 37° C., 100% humidity and 5% CO2. At 24 hours, growth media (100 μL) was added to designated “time zero” plates. Similarly, serial dilutions of drug or vehicle (in media) were added (100 μL aliquots) to the test and vehicle control wells at twice the predetermined highest concentration. […] Cells (including time zero plates) were then fixed with 50 μL of 50% trichloroacetic acid (TCA) (w:v) for adherent cells or 80% TCA for suspended cells, and plates refrigerated at 4° C. for 1 hr. […] The plates were then air-dried for 24 hr.

[5] = tested on: human MCF-7 breast carcinoma cells; experiment: HTD cytotoxicity, growth inhibition of MCF-7 cells (Table 1); assay type: cell-based; details: MCF-7, 72-hour incubation; ± standard deviation
[6] = tested on: CDF1 female mice; experiment: Acute toxicity of liposomal paclitaxel or paclitaxel derivative given intraperitoneally; details: liposomes, i.p.
Method: Moreover, liposomes containing either paclitaxel or a 2′-(2-bromo) hydrophobic paclitaxel derivative (containing either a six-carbon (C-6), C-8, C-12, C-14 or C-16 acyl chain at the 2′ position) were administered, intraperitoneally in 5 doses, to SCID (severe combined inimunodeficiency) mice bearing a human ovarian cancer (OvCar 3), at a dose of 12.5 mg paclitaxel per kg or a dose of 50 mg paclitaxel derivative per kg.
CDF1 female mice, 5 or 10 mice per group, were intraperitoneally administered either paclitaxel-, 2′-C6-paclitaxel derivative-, or 2′-C16-paclitaxel derivative-containing liposomes, in a single dose, or 5 doses, of either 12.5, 25, 50, 100, 200, 300. 400 or 500 mg of paclitaxel or paclitaxel derivative per kg of mouse body weight.

Row | Compound | GI50 [1] [nM] | GI50 [2] [nM] | GI50 [3] [nM] | GI50 [4] [nM] | GI50 [5] [nM] | other results
1 | CCCCC(Br)C(=O)O[C@@H](C(=O)O[C@H]1C[C@@]2(O)[C@@H](OC(=O)c3ccccc3)[C@@H]3[C@]4(OC(C)=O)CO[C@@H]4C[C@H](O)[C@@]3(C)C(=O)[C@H](OC(C)=O)C(=C1C)C2(C)C)[C@@H](NC(=O)c1ccccc1)c1ccccc1 (mixture of isomers) [2′-2-Bromohexanoyl-, 2′-(R)-[(±)-2-Bromohexanoyl] taxol] | 2.3 | 2.4 | > 10000 | 3.9 | 3 ± 0.2 | number of mice that died within the first 14 days post-injection/total ([6]; five doses of 50 mg/kg): 0/5; number of mice that died within the first 14 days post-injection/total ([6]; single dose 200 mg/kg): 0/2; number of mice that died within the first 14 days post-injection/total ([6]; single dose 300 mg/kg): 4/5; number of mice that died within the first 14 days post-injection/total ([6]; single dose 400 mg/kg): 5/5; number of mice that died within the first 14 days post-injection/total ([6]; single dose 500 mg/kg): 5/5
2 | CCCCCC(=O)OC(C(=O)OC1CC2(O)C(OC(=O)c3ccccc3)C3C4(OC(C)=O)COC4CC(OC(=O)CCCCC)C3(C)C(=O)C(OC(C)=O)C(=C1C)C2(C)C)C(NC(=O)c1ccccc1)c1ccccc1 (centres unmarked) [2′,7-diHexanoyl-] |  |  |  |  | > 10000 | 
3 | CCCCCCC(Br)C(=O)O[C@@H](C(=O)O[C@H]1C[C@@]2(O)[C@@H](OC(=O)c3ccccc3)[C@@H]3[C@]4(OC(C)=O)CO[C@@H]4C[C@H](O)[C@@]3(C)C(=O)[C@H](OC(C)=O)C(=C1C)C2(C)C)[C@@H](NC(=O)c1ccccc1)c1ccccc1 (some centres unmarked) [2′-2-Bromo-C8-Paclitaxel, 2′-(2-bromocapryanoyl) paclitaxel] | 2.9 | 3.1 | > 10000 | 4.4 |  | 
4 | CCCCCCCCCCC(Br)C(=O)OC(C(=O)OC1CC2(O)C(OC(=O)c3ccccc3)C3C4(OC(C)=O)COC4CC(O)C3(C)C(=O)C(OC(C)=O)C(=C1C)C2(C)C)C(NC(=O)c1ccccc1)c1ccccc1 (centres unmarked) [2′-2-Bromo-C12-Paclitaxel, 2′-(2 bromolauranoyl) paclitaxel] | 2.8 | 3.2 | > 10000 | 4.4 |  | 
5 | CCCCCCCCCCCCC(Br)C(=O)OC(C(=O)OC1CC2(O)C(OC(=O)c3ccccc3)C3C4(OC(C)=O)COC4CC(O)C3(C)C(=O)C(OC(C)=O)C(=C1C)C2(C)C)C(NC(=O)c1ccccc1)c1ccccc1 (centres unmarked) [2′-2-Bromo-C14-Paclitaxel, 2′-(2 bromomyrstanoyl) paclitaxel] | 16 | 20.6 | > 10000 | 31.7 |  | 
6 | CC(=O)OC1C(=O)C2(C)C(O)CC3OCC3(OC(C)=O)C2C(OC(=O)c2ccccc2)C2(O)CC(OC(=O)C(OC(=O)CCCCCBr)C(NC(=O)c3ccccc3)c3ccccc3)C(C)=C1C2(C)C (centres unmarked) [2′-6-Bromohexanoyl-] |  |  |  |  | > 10000 | 
7 | CCCCCC(=O)OC1CC2OCC2(OC(C)=O)C2C(OC(=O)c3ccccc3)C3(O)CC(OC(=O)C(OC(C)=O)C(NC(=O)c4ccccc4)c4ccccc4)C(C)=C(C(OC(C)=O)C(=O)C12C)C3(C)C (centres unmarked) [2′-Acetyl-7-Hexanoyl-] |  |  |  |  | 4460 ± 60 | 
8 | CCCCCC(=O)OC(C(=O)OC1CC2(O)C(OC(=O)c3ccccc3)C3C4(OC(C)=O)COC4CC(O)C3(C)C(=O)C(OC(C)=O)C(=C1C)C2(C)C)C(NC(=O)c1ccccc1)c1ccccc1 (centres unmarked) [2′-Hexanoyl-] |  |  |  |  | 500 ± 151 | 
9 | CCCCC(Br)C(=O)OC1CC2OCC2(OC(C)=O)C2C(OC(=O)c3ccccc3)C3(O)CC(OC(=O)C(O)C(NC(=O)c4ccccc4)c4ccccc4)C(C)=C(C(OC(C)=O)C(=O)C12C)C3(C)C (centres unmarked) [7-2-Bromohexanoyl-] |  |  |  |  | 4.6 ± 0.1 | 
10 | CC(=O)OC1C(=O)C2(C)C(OC(=O)CCCCCBr)CC3OCC3(OC(C)=O)C2C(OC(=O)c2ccccc2)C2(O)CC(OC(=O)C(O)C(NC(=O)c3ccccc3)c3ccccc3)C(C)=C1C2(C)C (centres unmarked) [7-6-Bromohexanoyl-] |  |  |  |  | 18 ± 2 | 
11 | CCCCCC(=O)OC1CC2OCC2(OC(C)=O)C2C(OC(=O)c3ccccc3)C3(O)CC(OC(=O)C(O)C(NC(=O)c4ccccc4)c4ccccc4)C(C)=C(C(OC(C)=O)C(=O)C12C)C3(C)C (centres unmarked) [7-Hexanoyl-] |  |  |  |  | 27 ± 19 | 

— US6482850B2, “Hydrolysis-promoting hydrophobic taxane derivatives” (priority 1995, dated 2002)
